The values below come from patent US20210253575A1, “PYRROLIDINE AMINE COMPOUNDS FOR THE TREATMENT OF AUTOIMMUNE DISEASE” (Hoffmann-La Roche Inc., priority 2018, published 2021).

In the assay the target is T1, human TLR8 (Homo sapiens, UniProt Q9NR97).
T1 sequence (Q9NR97 27-1041): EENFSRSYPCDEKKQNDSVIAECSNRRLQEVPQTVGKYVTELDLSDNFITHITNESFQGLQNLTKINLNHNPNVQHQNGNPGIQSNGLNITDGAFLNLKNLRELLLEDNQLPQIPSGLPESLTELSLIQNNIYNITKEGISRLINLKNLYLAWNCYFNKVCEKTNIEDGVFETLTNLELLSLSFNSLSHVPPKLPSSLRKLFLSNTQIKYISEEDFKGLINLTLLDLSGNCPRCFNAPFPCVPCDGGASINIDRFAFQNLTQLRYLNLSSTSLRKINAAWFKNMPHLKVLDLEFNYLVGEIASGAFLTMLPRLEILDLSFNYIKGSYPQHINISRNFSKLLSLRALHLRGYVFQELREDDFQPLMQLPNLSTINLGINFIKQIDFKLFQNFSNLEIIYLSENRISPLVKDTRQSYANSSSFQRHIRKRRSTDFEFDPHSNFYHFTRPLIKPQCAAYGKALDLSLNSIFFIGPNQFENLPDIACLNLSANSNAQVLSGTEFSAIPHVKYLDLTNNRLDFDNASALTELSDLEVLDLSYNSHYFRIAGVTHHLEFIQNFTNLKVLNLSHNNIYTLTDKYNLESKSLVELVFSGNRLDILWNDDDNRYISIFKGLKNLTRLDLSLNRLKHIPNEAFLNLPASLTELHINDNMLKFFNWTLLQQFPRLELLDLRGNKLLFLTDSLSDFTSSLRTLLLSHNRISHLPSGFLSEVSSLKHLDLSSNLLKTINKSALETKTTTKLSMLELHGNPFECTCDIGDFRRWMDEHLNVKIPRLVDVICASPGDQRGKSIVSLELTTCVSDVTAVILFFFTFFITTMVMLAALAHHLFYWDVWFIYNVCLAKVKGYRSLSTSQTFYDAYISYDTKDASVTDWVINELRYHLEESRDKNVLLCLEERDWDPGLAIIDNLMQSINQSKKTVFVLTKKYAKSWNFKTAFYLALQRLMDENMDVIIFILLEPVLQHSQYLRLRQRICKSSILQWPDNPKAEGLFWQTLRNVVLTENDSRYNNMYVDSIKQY
Put plainly: HEK293-Blue-hTLR-8 cells assay (SEAP reporter, R848 stimulation). As to conditions: HEK293-Blue-hTLR8 cells, R848 ligand, 20 hrs incubation. Type of assay: cell-based. In outline:
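Antagonism was measured in HEK293-Blue-hTLR8 cells with an NF-κB/AP-1-driven SEAP reporter. Cells were stimulated with R848 (10 μL of 60 uM stock) alongside compound (1% DMSO) for 20 hrs at 37° C. Supernatant SEAP was read with QUANTI-Blue after 2 hrs, absorbance at 620-655 nm.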
The compound `C[C@H]1CN(C[C@H]2CN(c3ccc(C#N)c4nccnc34)C[C@@H]2C(F)(F)F)CC[C@H]1N` [Example 72, 8-[(3S,4R)-3-[[(3S,4R)-4-amino-3-methyl-1-piperidyl]methyl]-4-(trifluoromethyl)pyrrolidin-1-yl]quinoxaline-5-carbonitrile] returned a half-maximal inhibitory concentration (IC50) of 23 nM.
For `N#Cc1ccc(N2C[C@H](CN3CC4CCC(C3)C4N)[C@@H](C(F)(F)F)C2)c2nccnc12` (stereo partly drawn) [Example 73, 8-[(3S,4R)-3-[(8-amino-3-azabicyclo[3.2.1]octan-3-yl)methyl]-4-(trifluoromethyl)pyrrolidin-1-yl]quinoxaline-5-carbonitrile], the IC50 is 35 nM.
The result for `N#Cc1ccc(N2C[C@H](CN3CCC(CN)CC3)[C@@H](C(F)(F)F)C2)c2nccnc12` [Example 74, 8-[(3S,4R)-3-[[4-(aminomethyl)-1-piperidyl]methyl]-4-(trifluoromethyl)pyrrolidin-1-yl]quinoxaline-5-carbonitrile] reads 55 nM; that for `CC1(CN)CCCN(C[C@H]2CN(c3ccc(C#N)c4nccnc34)C[C@@H]2C(F)(F)F)C1` (stereo partly drawn) [Example 75, 8-[(3S,4R)-3-[[3-(aminomethyl)-3-methyl-1-piperidyl]methyl]-4-(trifluoromethyl)pyrrolidin-1-yl]quinoxaline-5-carbonitrile], 31 nM; that for `N#Cc1ccc(N2C[C@H](CN3CC4CNCC4C3)[C@@H](C(F)(F)F)C2)c2nccnc12` (stereo partly drawn) [Example 76, 8-[(3S,4R)-3-(2,3,3a,4,6,6a-hexahydro-1H-pyrrolo[3,4-c]pyrrol-5-ylmethyl)-4-(trifluoromethyl)pyrrolidin-1-yl]quinoxaline-5-carbonitrile], 41 nM.
The same measure for `N#Cc1ccc(N2C[C@H](CN3CC4CCC3CN4)[C@@H](C(F)(F)F)C2)c2nccnc12` (stereo partly drawn) [Example 77, 8-[(3S,4R)-3-(2,5-diazabicyclo[2.2.2]octan-2-ylmethyl)-4-(trifluoromethyl)pyrrolidin-1-yl]quinoxaline-5-carbonitrile]: 26 nM.
`N#Cc1ccc(N2C[C@H](CN3CCCC(F)(CN)C3)[C@@H](C(F)(F)F)C2)c2nccnc12` (stereo partly drawn) [Example 78, 8-[(3S,4R)-3-[[3-(aminomethyl)-3-fluoro-1-piperidyl]methyl]-4-(trifluoromethyl)pyrrolidin-1-yl]quinoxaline-5-carbonitrile] displayed an IC50 of 30 nM.
The result for `N#Cc1ccc(N2C[C@H](CN3CCC(CCN)CC3)[C@@H](C(F)(F)F)C2)c2nccnc12` [Example 79, 8-[(3S,4R)-3-[[4-(2-aminoethyl)-1-piperidyl]methyl]-4-(trifluoromethyl)pyrrolidin-1-yl]quinoxaline-5-carbonitrile] reads 102 nM.
The same measure for `CN(C)C1CCN(C[C@H]2CN(c3ccc(C#N)c4nccnc34)C[C@@H]2C(F)(F)F)CC1` [Example 80, 8-[(3S,4R)-3-[[4-(dimethylamino)-1-piperidyl]methyl]-4-(trifluoromethyl)pyrrolidin-1-yl]quinoxaline-5-carbonitrile]: 32 nM.
The same measure for `CNCC1CCN(C[C@H]2CN(c3ccc(C#N)c4nccnc34)C[C@@H]2C(F)(F)F)CC1` [Example 81, 8-[(3S,4R)-3-[[4-(methylaminomethyl)-1-piperidyl]methyl]-4-(trifluoromethyl)pyrrolidin-1-yl]quinoxaline-5-carbonitrile]: 25 nM; for `CN(C)C[C@@H]1CCN(C[C@H]2CN(c3ccc(C#N)c4nccnc34)C[C@@H]2C(F)(F)F)C1` [Example 82, 8-[(3S,4R)-3-[[(3S)-3-[(dimethylamino)methyl]pyrrolidin-1-yl]methyl]-4-(trifluoromethyl)pyrrolidin-1-yl]quinoxaline-5-carbonitrile]: 108 nM.

A word on the IC50: it is the concentration needed to halve the response being measured.
